# Experimental data published in US20090099158A1, “TETRAHYDROISOQUINOLINE COMPOUNDS AS MODULATORS OF THE HISTAMINE H3 RECEPTOR” (priority 2007, published 2009).
# Target: T1, cloned human H3 receptors (Homo sapiens, UniProt Q9Y5N1)
# T1 construct: expressed in transfected cells; host or cells: SK-N-MC cells
# Experiment: H3 Receptor Binding (Human)
# Settings: cloned human H3 receptors stably expressed in SK-N-MC cells; average of the results obtained
# Protocol: Binding of compounds to the cloned human H3 receptors, stably expressed in SK-N-MC cells, was performed as described by Barbier, A. J. et al. (Br. J. Pharmacol. 2004, 143(5), 649-661). Data for compounds tested in this assay are presented in Table 1 as an average of the results obtained.
# T1 sequence (Q9Y5N1 whole entry): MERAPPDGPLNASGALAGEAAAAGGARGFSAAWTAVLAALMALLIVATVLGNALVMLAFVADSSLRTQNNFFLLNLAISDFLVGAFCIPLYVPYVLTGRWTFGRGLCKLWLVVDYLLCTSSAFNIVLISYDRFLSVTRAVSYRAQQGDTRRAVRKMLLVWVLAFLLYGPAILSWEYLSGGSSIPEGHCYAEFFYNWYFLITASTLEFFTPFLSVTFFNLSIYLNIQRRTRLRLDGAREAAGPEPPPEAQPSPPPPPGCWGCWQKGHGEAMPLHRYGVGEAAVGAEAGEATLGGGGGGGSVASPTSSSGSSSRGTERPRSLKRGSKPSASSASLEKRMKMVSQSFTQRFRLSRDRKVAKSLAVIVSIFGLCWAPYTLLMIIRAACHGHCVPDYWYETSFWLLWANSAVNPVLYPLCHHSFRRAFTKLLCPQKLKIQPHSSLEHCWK
row,Structure (SMILES),Ki
1,"CCC(=O)N1CCc2cc(C(=O)N3CCN(C4CCCC4)CC3)ccc2C1 [Example 63, 1-[6-(4-Cyclopentyl-piperazine-1-carbonyl)-3,4-dihydro-1H-isoquinolin-2-yl]-propan-1-one]",61 nM
2,"O=C(C1CCCCC1)N1CCc2cc(CN3CCN(C4CCC4)CC3)ccc2C1 [Example 170, [6-(4-Cyclobutyl-piperazin-1-ylmethyl)-3,4-dihydro-1H-isoquinolin-2-yl]-cyclohexyl-methanone]",860 nM
3,"CC(C)(C)C(=O)N1CCc2cc(C(=O)N3CCN(C4CCCC4)CC3)ccc2C1 [Example 64, 1-[6-(4-Cyclopentyl-piperazine-1-carbonyl)-3,4-dihydro-1H-isoquinolin-2-yl]-2,2-dimethyl-propan-1-one]",100 nM
4,"O=C(c1ccc2c(c1)CCN(C(=O)c1ccccc1F)C2)N1CCN2CCCCC2C1 (stereo not drawn) [Example 86, [2-(2-Fluoro-benzoyl)-1,2,3,4-tetrahydro-isoquinolin-6-yl]-(octahydro-pyrido[1,2-a]pyrazin-2-yl)-methanone]",27 nM
5,"O=C(c1ccc2c(c1)CCN(C(=O)c1ccc(Cl)cc1)C2)N1CCN(C2CCC2)CC1 [Example 105, [2-(4-Chloro-benzoyl)-1,2,3,4-tetrahydro-isoquinolin-6-yl]-(4-cyclobutyl-piperazin-1-yl)-methanone]",16 nM
6,"O=C(c1ccc2c(c1)CCN(C(=O)c1ccc(Cl)cc1Cl)C2)N1CCN(C2CCC2)CC1 [Example 118, [6-(4-Cyclobutyl-piperazine-1-carbonyl)-3,4-dihydro-1H-isoquinolin-2-yl]-(2,4-dichloro-phenyl)-methanone]",8 nM
7,"O=C(c1cccc(F)c1)N1CCc2cc(C(=O)N3CCN4CCCCC4C3)ccc2C1 (stereo not drawn) [Example 87, [2-(3-Fluoro-benzoyl)-1,2,3,4-tetrahydro-isoquinolin-6-yl]-(octahydro-pyrido[1,2-a]pyrazin-2-yl)-methanone]",23 nM
8,"CCCN1CCc2cc(C(=O)N3CCN4CCCCC4C3)ccc2C1 (stereo not drawn) [Example 181, (Octahydro-pyrido[1,2-a]pyrazin-2-yl)-(2-propyl-1,2,3,4-tetrahydro-isoquinolin-6-yl)-methanone]",2 nM
9,"CC(=O)N1CCc2cc(C(=O)N3CCN(C4CCC4)CC3)ccc2C1 [Example 30, 1-[6-(4-Cyclobutyl-piperazine-1-carbonyl)-3,4-dihydro-1H-isoquinolin-2-yl]-ethanone]",36 nM
10,"CC(C)N1CCCN(C(=O)c2ccc3c(c2)CCN(C(=O)OC(C)(C)C)C3)CC1 [Example 1, 6-(4-Isopropyl-[1,4]diazepane-1-carbonyl)-3,4-dihydro-1H-isoquinoline-2-carboxylic acid tert-butyl ester]",8 nM
11,"CC(C)(C)C1CCN(C(=O)c2ccc3c(c2)CCN(C2CCCC2)C3)CC1 [Example 193, (4-tert-Butyl-piperidin-1-yl)-(2-cyclopentyl-1,2,3,4-tetrahydro-isoquinolin-6-yl)-methanone]",240 nM
12,"O=C(c1ccc2c(c1)CCN(Cc1ccccc1)C2)N1CCCCC1 [Example 12, (2-Benzyl-1,2,3,4-tetrahydro-isoquinolin-6-yl)-piperidin-1-yl-methanone]",7000 nM
13,"CC(C)(C)OC(=O)N1CCc2cc(C(=O)N3CCN4CCCCC4C3)ccc2C1 (stereo not drawn) [Example 4, 6-(Octahydro-pyrido[1,2-a]pyrazine-2-carbonyl)-3,4-dihydro-1H-isoquinoline-2-carboxylic acid tert-butyl ester]",28 nM
14,"Cc1ccc(C(=O)N2CCc3cc(C(=O)N4CCN(C5CCC5)CC4)ccc3C2)cc1F [Example 127, (4-Cyclobutyl-piperazin-1-yl)-[2-(3-fluoro-4-methyl-benzoyl)-1,2,3,4-tetrahydro-isoquinolin-6-yl]-methanone]",27 nM
15,"CN(C)C1CCN(C(=O)c2ccc3c(c2)CCN(C(=O)C2CCCCC2)C3)CC1 [Example 154, Cyclohexyl-[6-(4-dimethylamino-piperidine-1-carbonyl)-3,4-dihydro-1H-isoquinolin-2-yl]-methanone]",441 nM
16,"O=C(c1ccc2c(c1)CCN(C(=O)c1ccccc1Cl)C2)N1CCN(C2CCCCC2)CC1 [Example 75, [2-(2-Chloro-benzoyl)-1,2,3,4-tetrahydro-isoquinolin-6-yl]-(4-cyclohexyl-piperazin-1-yl)-methanone]",77 nM
17,"O=C(c1ccc2c(c1)CCN(S(=O)(=O)c1ccc(F)cc1)C2)N1CCN(C2CCC2)CC1 [Example 104, (4-Cyclobutyl-piperazin-1-yl)-[2-(4-fluoro-benzenesulfonyl)-1,2,3,4-tetrahydro-isoquinolin-6-yl]-methanone]",16 nM
18,"CCS(=O)(=O)N1CCc2cc(C(=O)N3CCN(C4CCC4)CC3)ccc2C1 [Example 100, (4-Cyclobutyl-piperazin-1-yl)-(2-ethanesulfonyl-1,2,3,4-tetrahydro-isoquinolin-6-yl)-methanone]",35 nM

row,Structure (SMILES),Ki
1,"O=C(c1ccc2c(c1)CCN(C(=O)c1ccc(Cl)cc1Cl)C2)N1CCCN(C2CCC2)CC1 [Example 143, [6-(4-Cyclobutyl-[1,4]diazepane-1-carbonyl)-3,4-dihydro-1H-isoquinolin-2-yl]-(2,4-dichloro-phenyl)-methanone]",1 nM
2,"O=C(c1ccc2c(c1)CCN(C(=O)c1ccccc1F)C2)N1CCN(C2CCCCC2)CC1 [Example 72, (4-Cyclohexyl-piperazin-1-yl)-[2-(2-fluoro-benzoyl)-1,2,3,4-tetrahydro-isoquinolin-6-yl]-methanone]",80 nM
3,"O=C(c1ccccc1F)N1CCc2cc(C(=O)N3CCC[C@H]3CN3CCCC3)ccc2C1 [Example 56, (S)-(2-Fluoro-phenyl)-[6-(2-Pyrrolidin-1-ylmethyl-pyrrolidine-1-carbonyl)-3,4-dihydro-1H-isoquinolin-2-yl]-methanone]",23 nM
4,"O=C(C1CCCCC1)N1CCc2cc(C(=O)N3C[C@@H]4C[C@H]3CN4C3CCC3)ccc2C1 [Example 164, (1S,4S)-(5-Cyclobutyl-2,5-diaza-bicyclo[2.2.1]hept-2-yl)-(2-cyclohexanecarbonyl-1,2,3,4-tetrahydro-isoquinolin-6-yl)-methanone]",1150 nM
5,"O=C(c1ccc2c(c1)CCN(C(=O)c1ccccc1)C2)N1CCN(C2CCCCC2)CC1 [Example 85, (2-Benzoyl-1,2,3,4-tetrahydro-isoquinolin-6-yl)-(4-cyclohexyl-piperazin-1-yl)-methanone]",118 nM
6,"O=C(C1CCCCC1)N1CCc2cc(CN3CCCN(C4CCC4)CC3)ccc2C1 [Example 171, [6-(4-Cyclobutyl-[1,4]diazepan-1-ylmethyl)-3,4-dihydro-1H-isoquinolin-2-yl]-cyclohexyl-methanone]",23 nM
7,"O=C(CC1CCCC1)N1CCc2cc(C(=O)N3CCN(C4CCC4)CC3)ccc2C1 [Example 43, 1-[6-(4-Cyclobutyl-piperazine-1-carbonyl)-3,4-dihydro-1H-isoquinolin-2-yl]-2-cyclopentyl-ethanone]",20 nM
8,"O=C(c1cccc(Cl)c1)N1CCc2cc(C(=O)N3CCC[C@H]3CN3CCCC3)ccc2C1 [Example 51, (S)-(3-Chloro-phenyl)-[6-(2-pyrrolidin-1-ylmethyl-pyrrolidine-1-carbonyl)-3,4-dihydro-1H-isoquinolin-2-yl]-methanone]",14 nM
9,"O=C(c1ccc2c(c1)CCN(C(=O)C1CCCCC1)C2)N1CC2CN(C3CCC3)CC2C1 (stereo not drawn) [Example 163, (5-Cyclobutyl-hexahydro-pyrrolo[3,4-c]pyrrol-2-yl)-(2-cyclohexanecarbonyl-1,2,3,4-tetrahydro-isoquinolin-6-yl)-methanone]",170 nM
10,"O=C(c1ccc2c(c1)CCN(C1CCC1)C2)N1CCOCC1 [Example 186, (2-Cyclobutyl-1,2,3,4-tetrahydro-isoquinolin-6-yl)-morpholin-4-yl-methanone]",1800 nM
11,"CN(C)[C@@H]1CCN(C(=O)c2ccc3c(c2)CCN(C(=O)C2CCCCC2)C3)C1 [Example 155, (R)-Cyclohexyl-[6-(3-dimethylamino-pyrrolidine-1-carbonyl)-3,4-dihydro-1H-isoquinolin-2-yl]-methanone]",650 nM
12,"CC(C)(C)c1ccc(C(=O)N2CCc3cc(C(=O)N4CCC[C@H]4CN4CCCC4)ccc3C2)cc1 [Example 49, (S)-(4-tert-Butyl-phenyl)-[6-(2-pyrrolidin-1-ylmethyl-pyrrolidine-1-carbonyl)-3,4-dihydro-1H-isoquinolin-2-yl]-methanone]",46 nM
13,"O=C(c1ccc2c(c1)CCN(C(=O)C1CCCCC1)C2)N1CCN(C2CCCC2)CC1 [Example 159, Cyclohexyl-[6-(4-cyclopentyl-piperazine-1-carbonyl)-3,4-dihydro-1H-isoquinolin-2-yl]-methanone]",37 nM
14,"O=C(c1ccc2c(c1)CCN(C1CCCC1)C2)N1CCCCC1 [Example 191, (2-Cyclopentyl-1,2,3,4-tetrahydro-isoquinolin-6-yl)-piperidin-1-yl-methanone]",2200 nM
15,"CC(C)N1CCN(C(=O)c2ccc3c(c2)CCN(C(=O)c2ccsc2)C3)CC1 [Example 106, (4-Isopropyl-piperazin-1-yl)-[2-(thiophene-3-carbonyl)-1,2,34-tetrahydro-isoquinolin-6-yl]-methanone]",17 nM
16,"N#Cc1ccc(C(=O)N2CCc3cc(C(=O)N4CCN(C5CCCCC5)CC4)ccc3C2)cc1 [Example 81, 4-[6-(4-Cyclohexyl-piperazine-1-carbonyl)-3,4-dihydro-1H-isoquinoline-2-carbonyl]-benzonitrile]",65 nM
17,"O=C(c1ccc2c(c1)CCN(C(=O)c1ccccc1Cl)C2)N1CCN2CCCCC2C1 (stereo not drawn) [Example 89, [2-(2-Chloro-benzoyl)-1,2,3,4-tetrahydro-isoquinolin-6-yl]-(octahydro-pyrido[1,2-a]pyrazin-2-yl)-methanone]",21 nM
18,"O=C(c1ccc2c(c1)CCN(Cc1ccc(C(F)(F)F)cc1)C2)N1CCN(C2CC2)CC1 [Example 23, (4-Cyclopropyl-piperazin-1-yl)-[2-(4-trifluoromethyl-benzyl)-1,2,3,4-tetrahydro-isoquinolin-6-yl]-methanone]",114 nM
